Experimental data: PubChem BioAssay AID1963433 (Molecular Pharmacology Branch, DTP, NCI, 2024)
Values joined by “and” are separate entries in the source; they are usually repeats but may differ in a detail not shown here. Identical values can stand only once.

Tested on: 772245-204-R-J1-PDC complex spheroid growth
Experiment: Anticancer human tumor 772245-204-R-J1-PDC patient-derived rhabdomyosarcoma cell line growth inhibition [Asc]
Settings: for viability, T/C: stronger effect = lower value
Method in brief: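 Complex solid-tumor spheroids incorporating human endothelial and mesenchymal stem cells received single agents or combinations over half-log dilution ranges anchored to clinical Cmax.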

[1] = curve of first compound, second compound 0.1 µM
[2] = curve of first compound, second compound 0.316 µM
[3] = curve of first compound, second compound 1 µM
[4] = second compound 0.1 µM, first compound 0.0316 µM
[5] = second compound 0.1 µM, first compound 0.1 µM
[6] = second compound 0.1 µM, first compound 0.316 µM
[7] = second compound 0.1 µM, first compound 1 µM
[8] = second compound 0.1 µM, first compound 3.16 µM
[9] = second compound 0.1 µM, first compound 10 µM
[10] = second compound 0.316 µM, first compound 0.0316 µM
[11] = second compound 0.316 µM, first compound 0.1 µM
[12] = second compound 0.316 µM, first compound 0.316 µM
[13] = second compound 0.316 µM, first compound 1 µM
[14] = second compound 0.316 µM, first compound 3.16 µM
[15] = second compound 0.316 µM, first compound 10 µM
[16] = second compound 1 µM, first compound 0.0316 µM
[17] = second compound 1 µM, first compound 0.1 µM
[18] = second compound 1 µM, first compound 0.316 µM
[19] = second compound 1 µM, first compound 1 µM
[20] = second compound 1 µM, first compound 3.16 µM
[21] = second compound 1 µM, first compound 10 µM
[22] = curve of first compound, second compound 3.16 µM
[23] = curve of first compound, second compound 10 µM
[24] = second compound 3.16 µM, first compound 0.0316 µM
[25] = second compound 3.16 µM, first compound 0.1 µM
[26] = second compound 3.16 µM, first compound 0.316 µM
[27] = second compound 3.16 µM, first compound 1 µM
[28] = second compound 3.16 µM, first compound 3.16 µM
[29] = second compound 3.16 µM, first compound 10 µM
[30] = second compound 10 µM, first compound 0.0316 µM
[31] = second compound 10 µM, first compound 0.1 µM
[32] = second compound 10 µM, first compound 0.316 µM
[33] = second compound 10 µM, first compound 1 µM
[34] = second compound 10 µM, first compound 3.16 µM
[35] = second compound 10 µM, first compound 10 µM
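Note: compound exposure lasted seven days.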
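Throughout, for viability, T/C: 100% = DMSO vehicle control viability.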

## O=C(c1cc(Cc2n[nH]c(=O)c3ccccc23)ccc1F)N1CCN(C(=O)C2CC2)CC1 + CNC(C)C(=O)NC1CN(S(=O)(=O)c2cccc(S(=O)(=O)N3CCC4CCC(C(=O)NC(c5ccccc5)c5ccccc5)N4C(=O)C(NC(=O)C(C)NC)C3)c2)CCC2CCC(C(=O)NC(c3ccccc3)c3ccccc3)N2C1=O
Curve of first compound, second compound 0.01 µM
  IC50: > 10 µM
Curve of first compound, second compound 0.0316 µM
  IC50: > 10 µM
[1]
  IC50: > 10 µM
[2]
  IC50: > 10 µM
[3]
  IC50: > 10 µM
Second compound 0.01 µM, first compound 0.0316 µM
  viability, T/C: 93.6%
Second compound 0.01 µM, first compound 0.1 µM
  viability, T/C: 99.7%
Second compound 0.01 µM, first compound 0.316 µM
  viability, T/C: 99%
Second compound 0.01 µM, first compound 1 µM
  viability, T/C: 98.5%
Second compound 0.01 µM, first compound 3.16 µM
  viability, T/C: 80.5%
Second compound 0.01 µM, first compound 10 µM
  viability, T/C: 81.1%
Second compound 0.0316 µM, first compound 0.0316 µM
  viability, T/C: 106%
Second compound 0.0316 µM, first compound 0.1 µM
  viability, T/C: 104%
Second compound 0.0316 µM, first compound 0.316 µM
  viability, T/C: 88.6%
Second compound 0.0316 µM, first compound 1 µM
  viability, T/C: 113%
Second compound 0.0316 µM, first compound 3.16 µM
  viability, T/C: 96.1%
Second compound 0.0316 µM, first compound 10 µM
  viability, T/C: 97.7%
[4]
  viability, T/C: 103%
[5]
  viability, T/C: 99.2%
[6]
  viability, T/C: 98%
[7]
  viability, T/C: 86.7%
[8]
  viability, T/C: 78.3%
[9]
  viability, T/C: 76.5%
[10]
  viability, T/C: 102%
[11]
  viability, T/C: 106%
[12]
  viability, T/C: 106%
[13]
  viability, T/C: 94.5%
[14]
  viability, T/C: 81.2%
[15]
  viability, T/C: 78%
[16]
  viability, T/C: 106%
[17]
  viability, T/C: 94.1%
[18]
  viability, T/C: 103%
[19]
  viability, T/C: 97.2%
[20]
  viability, T/C: 82.6%
[21]
  viability, T/C: 94.8%

## C=CC(=O)N1CCN(c2nc(=O)n(-c3c(C)ccnc3C(C)C)c3nc(-c4c(O)cccc4F)c(F)cc23)C(C)C1 (stereo not given) + Cc1c(S(C)(=O)=O)c(-c2cc(F)cc(N3CCN(c4ccc(NS(=O)(=O)c5ccc(NC(CCN6CCC(C(=O)OCCCP(=O)(O)O)CC6)CSc6ccccc6)c(S(=O)(=O)C(F)(F)F)c5)cc4)CC3)c2)c(-c2ccc(Cl)cc2)n1C(C)C
[1]
  IC50: 6.32 µM
[2]
  IC50: 2.43 µM
[3]
  IC50: < 0.0316 µM
[22]
  IC50: 0.0579 µM
[23]
  IC50: < 0.0316 µM
[4]
  viability, T/C: 85%
[5]
  viability, T/C: 79.7%
[6]
  viability, T/C: 89.5%
[7]
  viability, T/C: 67.7%
[8]
  viability, T/C: 69.5%
[9]
  viability, T/C: 38.9%
[10]
  viability, T/C: 66.9%
[11]
  viability, T/C: 69.2%
[12]
  viability, T/C: 68.2%
[13]
  viability, T/C: 59.9%
[14]
  viability, T/C: 47.1%
[15]
  viability, T/C: 11.8%
[16]
  viability, T/C: 49.9%
[17]
  viability, T/C: 43%
[18]
  viability, T/C: 44.9%
[19]
  viability, T/C: 29.3%
[20]
  viability, T/C: 15.1%
[21]
  viability, T/C: 15.1%
[24]
  viability, T/C: 41.8%
[25]
  viability, T/C: 62.3%
[26]
  viability, T/C: 37.9%
[27]
  viability, T/C: 26.5%
[28]
  viability, T/C: 15.8%
[29]
  viability, T/C: 5.71%
[30]
  viability, T/C: 48.5%
[31]
  viability, T/C: 41.3%
[32]
  viability, T/C: 41.3%
[33]
  viability, T/C: 30.6%
[34]
  viability, T/C: 13.5%
[35]
  viability, T/C: 6.87%

## C=C(F)C(=O)N1CCN(c2nc(OCC3CCCN3C)nc3c2CCN(c2cccc4cccc(Cl)c24)C3)CC1CC#N (stereo not given) + Cc1c(S(C)(=O)=O)c(-c2cc(F)cc(N3CCN(c4ccc(NS(=O)(=O)c5ccc(NC(CCN6CCC(C(=O)OCCCP(=O)(O)O)CC6)CSc6ccccc6)c(S(=O)(=O)C(F)(F)F)c5)cc4)CC3)c2)c(-c2ccc(Cl)cc2)n1C(C)C
[1]
  IC50: 1.57 µM
[2]
  IC50: 0.772 µM
[3]
  IC50: < 0.0316 µM
[22]
  IC50: < 0.0316 µM
[23]
  IC50: < 0.0316 µM
[4]
  viability, T/C: 79%
[5]
  viability, T/C: 77.7%
[6]
  viability, T/C: 72.6%
[7]
  viability, T/C: 70.7%
[8]
  viability, T/C: 18.1%
[9]
  viability, T/C: 0.14%
[10]
  viability, T/C: 60.4%
[11]
  viability, T/C: 65.2%
[12]
  viability, T/C: 52.3%
[13]
  viability, T/C: 47.8%
[14]
  viability, T/C: 3.54%
[15]
  viability, T/C: 0.12%
[16]
  viability, T/C: 40%
[17]
  viability, T/C: 45.9%
[18]
  viability, T/C: 35.4%
[19]
  viability, T/C: 30.9%
[20]
  viability, T/C: 2.95%
[21]
  viability, T/C: 0.1%
[24]
  viability, T/C: 35.7%
[25]
  viability, T/C: 39.7%
[26]
  viability, T/C: 45.7%
[27]
  viability, T/C: 20.1%
[28]
  viability, T/C: 1.47%
[29]
  viability, T/C: 0.11%
[30]
  viability, T/C: 43.3%
[31]
  viability, T/C: 39.4%
[32]
  viability, T/C: 37.3%
[33]
  viability, T/C: 17.6%
[34]
  viability, T/C: 1.02%
[35]
  viability, T/C: 0.18%

## CNC(C)C(=O)NC1CN(S(=O)(=O)c2cccc(S(=O)(=O)N3CCC4CCC(C(=O)NC(c5ccccc5)c5ccccc5)N4C(=O)C(NC(=O)C(C)NC)C3)c2)CCC2CCC(C(=O)NC(c3ccccc3)c3ccccc3)N2C1=O (stereo not given)
Compound 0.00316 µM
  viability, T/C: 94.7% and 94.4% and 79%
Compound 0.01 µM
  viability, T/C: 93.9% [middle of 14 runs]
Compound alone, run of 10/24/2022
  IC50: > 1 µM
Compound alone, run of 11/15/2022
  IC50: > 1 µM
Curve of compound
  IC50: > 1 µM

## CCN1CCN(Cc2ccc(Nc3ncc(F)c(-c4cc(F)c5nc(C)n(C(C)C)c5c4)n3)nc2)CC1 + CCN1C(C(=O)NC23CCC(C(=O)O)(CC2)CC3)C(c2cccc(Cl)c2F)C2(C(=O)Nc3cc(Cl)ccc32)C12CCCCC2
Curve of first compound, second compound 0.03 µM
  IC50: > 1 µM
Curve of first compound, second compound 0.0949 µM
  IC50: > 1 µM
Curve of first compound, second compound 0.3 µM
  IC50: > 1 µM
Curve of first compound, second compound 0.949 µM
  IC50: > 1 µM
Curve of first compound, second compound 3 µM
  IC50: > 1 µM
Second compound 0.03 µM, first compound 0.00316 µM
  viability, T/C: 100%
Second compound 0.03 µM, first compound 0.01 µM
  viability, T/C: 97.4%
Second compound 0.03 µM, first compound 0.0316 µM
  viability, T/C: 103%
Second compound 0.03 µM, first compound 0.1 µM
  viability, T/C: 110%
Second compound 0.03 µM, first compound 0.316 µM
  viability, T/C: 114%
Second compound 0.03 µM, first compound 1 µM
  viability, T/C: 116%
Second compound 0.0949 µM, first compound 0.00316 µM
  viability, T/C: 99.5%
Second compound 0.0949 µM, first compound 0.01 µM
  viability, T/C: 110%
Second compound 0.0949 µM, first compound 0.0316 µM
  viability, T/C: 101%
Second compound 0.0949 µM, first compound 0.1 µM
  viability, T/C: 111%
Second compound 0.0949 µM, first compound 0.316 µM
  viability, T/C: 114%
Second compound 0.0949 µM, first compound 1 µM
  viability, T/C: 116%
Second compound 0.3 µM, first compound 0.00316 µM
  viability, T/C: 106%
Second compound 0.3 µM, first compound 0.01 µM
  viability, T/C: 111%
Second compound 0.3 µM, first compound 0.0316 µM
  viability, T/C: 122%
Second compound 0.3 µM, first compound 0.1 µM
  viability, T/C: 103%
Second compound 0.3 µM, first compound 0.316 µM
  viability, T/C: 102%
Second compound 0.3 µM, first compound 1 µM
  viability, T/C: 131%
Second compound 0.949 µM, first compound 0.00316 µM
  viability, T/C: 94.3%
Second compound 0.949 µM, first compound 0.01 µM
  viability, T/C: 93.4%
Second compound 0.949 µM, first compound 0.0316 µM
  viability, T/C: 100%
Second compound 0.949 µM, first compound 0.1 µM
  viability, T/C: 102%
Second compound 0.949 µM, first compound 0.316 µM
  viability, T/C: 92.9%
Second compound 0.949 µM, first compound 1 µM
  viability, T/C: 96%
Second compound 3 µM, first compound 0.00316 µM
  viability, T/C: 77.9%
Second compound 3 µM, first compound 0.01 µM
  viability, T/C: 84.7%
Second compound 3 µM, first compound 0.0316 µM
  viability, T/C: 85.5%
Second compound 3 µM, first compound 0.1 µM
  viability, T/C: 89.9%
Second compound 3 µM, first compound 0.316 µM
  viability, T/C: 80.1%
Second compound 3 µM, first compound 1 µM
  viability, T/C: 121%
